Measured values taken from ChEMBL document CHEMBL1136842, “5-Nitrofuran-2-yl derivatives: synthesis and inhibitory activities against growing and dormant mycobacterium species” (Bioorg Med Chem Lett, 2009).
In brackets after ≈: the same amount, converted by molar mass.

Legend:
[1] = tested on: Mycolicibacterium smegmatis; test: Antimycobacterial activity against Mycobacterium smegmatis ATCC 14468 by agar dilution method; type: functional
[2] = tested on: Mycobacterium tuberculosis; test: Antimycobacterial activity against Mycobacterium tuberculosis H37Rv by agar dilution method; type: functional
Vero = test: Cytotoxicity against african green monkey Vero cells after 72 hrs by MTT assay; type: cell-based; conditions: Chlorocebus sabaeus
[3] = tested on: Mycobacterium tuberculosis; test: Antimycobacterial activity against log-phase culture of Mycobacterium tuberculosis H37Rv by agar dilution method; type: functional
Mycolicibacterium phlei = test: Antimycobacterial activity against Mycobacterium phlei MTCC 1724 by agar dilution method; type: functional
[4] = Ratio of IC50 for african green monkey Vero cells to MIC for Mycobacterium tuberculosis H37Rv; type: functional
Mycobacterium kansasii = test: Antimycobacterial activity against Mycobacterium kansasii MTCC 3058 by agar dilution method; type: functional
Mycolicibacterium vaccae = test: Antimycobacterial activity against Mycobacterium vaccae MTCC 997 by agar dilution method; type: functional
[5] = tested on: Mycolicibacterium smegmatis; test: Antimycobacterial activity against 6-week-starved culture of Mycobacterium smegmatis ATCC 14468 by agar dilution method; type: functional
[6] = tested on: Mycobacterium tuberculosis; test: Antimycobacterial activity against 6-week-starved culture of Mycobacterium tuberculosis H37Rv by agar dilution method; type: functional
[7] = tested on: Mycolicibacterium fortuitum; test: Antimycobacterial activity against Mycobacterium fortuitum MTCC 951 by agar dilution method; type: functional
[8] = tested on: Mycolicibacterium smegmatis; test: Antimycobacterial activity against log-phase culture of Mycobacterium smegmatis ATCC 14468 by agar dilution method; type: functional

SMILES	MIC [1] [µM]	MIC [2] [µM]	IC50 (Vero) [µM]	MIC [3] [µM]	MIC (Mycolicibacterium phlei) [µM]	Ratio [4]	MIC (Mycobacterium kansasii) [µM]	MIC (Mycolicibacterium vaccae) [µM]	MIC [5] [µM]	MIC [6] [µM]	MIC [7] [µM]	MIC [8] [µM]
O=[N+]([O-])c1ccc(/C=N/NC(=S)Nc2ncc(Br)cc2Br)o1	6.9 (≈ 3.1 µg/mL)	0.22 (≈ 0.0988 µg/mL)	139	0.22 (≈ 0.0988 µg/mL)	6.9 (≈ 3.1 µg/mL)	632.2	1.7 (≈ 0.763 µg/mL)	3.4 (≈ 1.53 µg/mL)	124 (≈ 55.8 µg/mL)	13.9 (≈ 6.24 µg/mL)	3.4 (≈ 1.53 µg/mL)	6.9 (≈ 3.1 µg/mL)
O=[N+]([O-])c1ccc(/C=N/NC(=S)Nc2ccc(Cl)cc2)o1	19.1 (≈ 6.2 µg/mL)	1.23 (≈ 0.399 µg/mL)	> 192	–	9.6 (≈ 3.12 µg/mL)	–	38.4 (≈ 12.5 µg/mL)	9.6 (≈ 3.12 µg/mL)	134 (≈ 43.4 µg/mL)	–	38.4 (≈ 12.5 µg/mL)	19.1 (≈ 6.2 µg/mL)
Cc1cccnc1NC(=S)N/N=C/c1ccc([N+](=O)[O-])o1	20.5 (≈ 6.26 µg/mL)	5.1 (≈ 1.56 µg/mL)	< 205	–	10.2 (≈ 3.11 µg/mL)	–	5.1 (≈ 1.56 µg/mL)	20.5 (≈ 6.26 µg/mL)	–	–	10.2 (≈ 3.11 µg/mL)	–
CCc1cccc(CC)c1NC(=S)N/N=C/c1ccc([N+](=O)[O-])o1	36 (≈ 12.5 µg/mL)	1.1 (≈ 0.381 µg/mL)	> 180	1.2 (≈ 0.416 µg/mL)	36 (≈ 12.5 µg/mL)	–	36 (≈ 12.5 µg/mL)	72.1 (≈ 25 µg/mL)	–	36 (≈ 12.5 µg/mL)	72.1 (≈ 25 µg/mL)	–
O=[N+]([O-])c1ccc(/C=N/NC(=S)Nc2ccccc2)o1	172 (≈ 50 µg/mL)	10.7 (≈ 3.11 µg/mL)	> 215	–	10.7 (≈ 3.11 µg/mL)	–	5.3 (≈ 1.54 µg/mL)	43 (≈ 12.5 µg/mL)	–	–	43 (≈ 12.5 µg/mL)	–
Cc1ccnc(NC(=S)N/N=C/c2ccc([N+](=O)[O-])o2)c1	20.5 (≈ 6.26 µg/mL)	2.6 (≈ 0.794 µg/mL)	< 205	–	5.1 (≈ 1.56 µg/mL)	–	5.1 (≈ 1.56 µg/mL)	2.6 (≈ 0.794 µg/mL)	–	–	5.1 (≈ 1.56 µg/mL)	–
Cc1ccc(NC(=S)N/N=C/c2ccc([N+](=O)[O-])o2)cc1	41 (≈ 12.5 µg/mL)	5.1 (≈ 1.55 µg/mL)	> 205	–	2.5 (≈ 0.761 µg/mL)	–	20.5 (≈ 6.24 µg/mL)	41 (≈ 12.5 µg/mL)	–	–	41 (≈ 12.5 µg/mL)	–
O=[N+]([O-])c1ccc(/C=N/NC(=S)Nc2ccccc2Br)o1	33.8 (≈ 12.5 µg/mL)	0.54 (≈ 0.199 µg/mL)	> 169	0.54 (≈ 0.199 µg/mL)	16.9 (≈ 6.24 µg/mL)	–	8.4 (≈ 3.1 µg/mL)	16.9 (≈ 6.24 µg/mL)	–	33.8 (≈ 12.5 µg/mL)	33.8 (≈ 12.5 µg/mL)	–
Cc1ccc(NC(=S)N/N=C/c2ccc([N+](=O)[O-])o2)c(C)c1	314 (≈ 100 µg/mL)	2.45 (≈ 0.78 µg/mL)	> 196	–	4.9 (≈ 1.56 µg/mL)	–	9.8 (≈ 3.12 µg/mL)	39.2 (≈ 12.5 µg/mL)	–	–	39.2 (≈ 12.5 µg/mL)	–
Cc1cccc(C)c1NC(=S)N/N=C/c1ccc([N+](=O)[O-])o1	39.2 (≈ 12.5 µg/mL)	4.9 (≈ 1.56 µg/mL)	> 196	–	9.8 (≈ 3.12 µg/mL)	–	39.2 (≈ 12.5 µg/mL)	39.2 (≈ 12.5 µg/mL)	–	–	39.2 (≈ 12.5 µg/mL)	–
Cc1cc(C)nc(NC(=S)N/N=C/c2ccc([N+](=O)[O-])o2)c1	4.8 (≈ 1.53 µg/mL)	2.4 (≈ 0.766 µg/mL)	< 196	–	39.1 (≈ 12.5 µg/mL)	–	39.1 (≈ 12.5 µg/mL)	39.1 (≈ 12.5 µg/mL)	91.2 (≈ 29.1 µg/mL)	–	39.1 (≈ 12.5 µg/mL)	4.8 (≈ 1.53 µg/mL)
Cc1ccc(C)c(NC(=S)N/N=C/c2ccc([N+](=O)[O-])o2)c1	157 (≈ 50 µg/mL)	1.2 (≈ 0.382 µg/mL)	> 196	1.1 (≈ 0.35 µg/mL)	4.8 (≈ 1.53 µg/mL)	–	78.5 (≈ 25 µg/mL)	2.4 (≈ 0.764 µg/mL)	–	154 (≈ 49 µg/mL)	78.5 (≈ 25 µg/mL)	–
O=[N+]([O-])c1ccc(/C=N/NC(=S)Nc2ccccn2)o1	48.4 (≈ 14.1 µg/mL)	12.1 (≈ 3.52 µg/mL)	214	–	6 (≈ 1.75 µg/mL)	–	12.1 (≈ 3.52 µg/mL)	24.2 (≈ 7.05 µg/mL)	–	–	48.4 (≈ 14.1 µg/mL)	–
O=[N+]([O-])c1ccc(/C=N/NC(=S)Nc2ccc(Cl)cn2)o1	2.4 (≈ 0.782 µg/mL)	1.2 (≈ 0.391 µg/mL)	192	1.2 (≈ 0.391 µg/mL)	38.3 (≈ 12.5 µg/mL)	–	4.8 (≈ 1.56 µg/mL)	4.8 (≈ 1.56 µg/mL)	43.2 (≈ 14.1 µg/mL)	38.3 (≈ 12.5 µg/mL)	38.3 (≈ 12.5 µg/mL)	2.4 (≈ 0.782 µg/mL)
COc1ccc(NC(=S)N/N=C/c2ccc([N+](=O)[O-])o2)c(OC)c1	35.6 (≈ 12.5 µg/mL)	4.4 (≈ 1.54 µg/mL)	> 178	–	4.4 (≈ 1.54 µg/mL)	–	35.6 (≈ 12.5 µg/mL)	71.1 (≈ 24.9 µg/mL)	–	–	35.6 (≈ 12.5 µg/mL)	–
COc1ccc(NC(=S)N/N=C/c2ccc([N+](=O)[O-])o2)cc1	39 (≈ 12.5 µg/mL)	9.7 (≈ 3.11 µg/mL)	> 195	–	4.85 (≈ 1.55 µg/mL)	–	39 (≈ 12.5 µg/mL)	78 (≈ 25 µg/mL)	–	–	39 (≈ 12.5 µg/mL)	–
NS(=O)(=O)c1ccc(NC(=S)N/N=C/c2ccc([N+](=O)[O-])o2)cc1	8.4 (≈ 3.1 µg/mL)	2.1 (≈ 0.776 µg/mL)	< 169	–	16.8 (≈ 6.21 µg/mL)	–	33.8 (≈ 12.5 µg/mL)	2.1 (≈ 0.776 µg/mL)	75.6 (≈ 27.9 µg/mL)	–	33.8 (≈ 12.5 µg/mL)	8.4 (≈ 3.1 µg/mL)
O=C(O)c1cn(C2CC2)c2cc(N3CCNCC3)c(F)cc2c1=O [CIPROFLOXACIN]	2.35 (≈ 0.779 µg/mL)	–	> 188	–	–	–	9.45 (≈ 3.13 µg/mL)	–	–	–	–	–
NNC(=O)c1ccncc1 [ISONIAZID]	45.6 (≈ 6.25 µg/mL)	0.66 (≈ 0.0905 µg/mL)	> 456	0.66 (≈ 0.0905 µg/mL)	91.2 (≈ 12.5 µg/mL)	–	182 (≈ 25 µg/mL)	182 (≈ 25 µg/mL)	> 729	729 (≈ 100 µg/mL)	22.8 (≈ 3.13 µg/mL)	45.6 (≈ 6.25 µg/mL)
CO[C@H]1/C=C/O[C@@]2(C)Oc3c(C)c(O)c4c(O)c(c(/C=N/N5CCN(C)CC5)c(O)c4c3C2=O)NC(=O)/C(C)=C\C=C\[C@H](C)[C@H](O)[C@@H](C)[C@@H](O)[C@@H](C)[C@H](OC(C)=O)[C@@H]1C [RIFAMPIN]	1.89 (≈ 1.56 µg/mL)	0.23 (≈ 0.189 µg/mL)	> 75.9	0.23 (≈ 0.189 µg/mL)	30.4 (≈ 25 µg/mL)	–	7.59 (≈ 6.25 µg/mL)	3.8 (≈ 3.13 µg/mL)	22.6 (≈ 18.6 µg/mL)	15.2 (≈ 12.5 µg/mL)	1.89 (≈ 1.56 µg/mL)	1.89 (≈ 1.56 µg/mL)
